The results in this text go back to US6420424B1, “CCR-3 receptor antagonists” (SmithKline Beecham Corporation, priority 1998, dated 2002).

With `CCOC(=O)[C@H](Cc1ccc(N)cc1)NC(=O)c1ccccc1` [Example 6, (S)-Ethyl-2-benzoylamino-3-(4-aminophenyl)propionate], the melting point (commonly the temperature, or range, at which the solid turns liquid) lay within 120 to 122 °C.
